Measured values taken from ChEMBL document CHEMBL1208749 (2010).

Test system: 3T3-L1
Assay: Glucose uptake enhancing activity in insulin-stimulated mouse 3T3L1 cells at 10 uM after 4 days by FLIPR based 2-DG uptake assay relative to control
Assay type: functional

Row | Compound | fold change (FC)
1 | O=c1cc(-c2ccc(O)cc2)oc2c([C@@H]3O[C@H](CO)[C@@H](O)[C@H](O)[C@H]3O)c(O)cc(O)c12 | 1.1
2 | O=c1c(-c2ccc(O[C@@H]3O[C@H](CO)[C@@H](O)[C@H](O)[C@H]3O)cc2)coc2cc(O)ccc12 | 1.15
3 | O=c1c(-c2ccc(O)cc2)coc2cc(O)ccc12 [DAIDZEIN] | 1.5
4 | O=c1c(-c2ccc(O)cc2)coc2cc(O)c([C@H]3O[C@@H](CO)[C@H](O)[C@@H](O)[C@@H]3O)c(O)c12 | 1.5
5 | O=c1c(-c2ccc(O)cc2)coc2cc(O[C@@H]3O[C@H](CO)[C@@H](O)[C@H](O)[C@H]3O)ccc12 [DAIDZIN] | 1.15
6 | O=C1c2c(O)cc(O)c([C@@H]3O[C@H](CO)[C@@H](O)[C@H](O)[C@H]3O)c2OCC1c1ccc(O)cc1 (stereo partly drawn) | 1.1
7 | O=c1c(-c2ccc(O)cc2)coc2c([C@@H]3O[C@H](CO)[C@@H](O)[C@H](O)[C@H]3O)c(O)ccc12 [PUERARIN] | 1.5
8 | O=c1c(-c2ccc(O)cc2)coc2c(CC(O)CO)c(O)ccc12 (stereo not drawn) | 1.5
